Assay results reported in ChEMBL document CHEMBL4342486, “An Alkyne-functionalized Arginine for Solid-Phase Synthesis Enabling "Bioorthogonal" Peptide Conjugation” (ACS Med Chem Lett, 2020).

Legend:
[1] = target: Neurotensin receptor type 1 (Homo sapiens, UniProt P30989); experiment: Displacement of [3H]UR-MK300 from human NTS1R expressed in human HT-29 cells incubated for 2 hrs by scintillation counting method; type: cell-based
[2] = Chemical stability of compound in PBS buffer at pH 7.4 at 100 uM incubated for 48 hrs by RP-HPLC analysis; type: physicochemical; conditions: pH 7.4, 48 h
[3] = target: Neuropeptide Y receptor type 4 (Homo sapiens, UniProt P50391); experiment: Displacement of [3H]UR-KK200 from human Y4R expressed in CHO cells incubated for 90 mins by microbeta scintillation counting method; type: cell-based
Chain of Neuropeptide Y receptor type 4 (P50391 whole entry): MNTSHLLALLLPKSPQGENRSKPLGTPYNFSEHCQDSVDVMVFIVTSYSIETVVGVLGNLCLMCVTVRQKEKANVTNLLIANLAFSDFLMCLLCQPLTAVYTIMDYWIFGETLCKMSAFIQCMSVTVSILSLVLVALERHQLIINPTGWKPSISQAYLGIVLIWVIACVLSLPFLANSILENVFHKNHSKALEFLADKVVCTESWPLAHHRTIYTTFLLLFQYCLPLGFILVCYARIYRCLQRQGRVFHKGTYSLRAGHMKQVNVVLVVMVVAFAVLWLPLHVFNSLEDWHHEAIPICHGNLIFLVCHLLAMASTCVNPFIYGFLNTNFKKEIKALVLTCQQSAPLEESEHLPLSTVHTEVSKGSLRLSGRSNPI

Chain of Neurotensin receptor type 1 (P30989 whole entry): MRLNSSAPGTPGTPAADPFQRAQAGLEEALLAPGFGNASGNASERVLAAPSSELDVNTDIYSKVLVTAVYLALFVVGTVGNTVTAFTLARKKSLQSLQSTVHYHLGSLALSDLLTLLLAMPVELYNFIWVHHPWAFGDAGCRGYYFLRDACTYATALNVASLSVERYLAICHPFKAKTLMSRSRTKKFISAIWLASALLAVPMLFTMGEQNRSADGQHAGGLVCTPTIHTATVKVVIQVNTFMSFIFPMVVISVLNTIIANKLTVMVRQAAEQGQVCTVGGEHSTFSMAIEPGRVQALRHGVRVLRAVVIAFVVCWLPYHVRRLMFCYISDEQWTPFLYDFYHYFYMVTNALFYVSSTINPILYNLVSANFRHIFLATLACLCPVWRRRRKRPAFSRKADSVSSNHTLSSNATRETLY

| Ki ([1]; read-out: Ki) | Stability [2] | Ki ([1]; read-out: pKi (converted)) | Ki [3] | SMILES |
| --- | --- | --- | --- | --- |
| 50 nM | Stable | – | – | CC(C)C[C@H](NC(=O)[C@@H](NC(=O)[C@H](Cc1ccc(O)cc1)NC(=O)[C@@H]1CCCN1C(=O)[C@H](CCCNC(=N)N)NC(=O)[C@@H](N)CCCNC(=N)NC(=O)NCCCCc1cn(CCCNC(=O)CCCCCN2/C(=C/C=C/C=C/C3=[N+](C)c4ccc5c(S(=O)(=O)[O-])cc(S(=O)(=O)O)cc5c4C3(C)C)C(C)(C)c3c2ccc2c(S(=O)(=O)O)cc(S(=O)(=O)O)cc32)nn1)C(C)(C)C)C(=O)O |
| 9.6 nM | – | 9.33 nM | – | C#CCCCCNC(=O)NC(=N)NCCC[C@H](NC(=O)[C@H](CCCNC(=N)N)NC)C(=O)N1CCC[C@H]1C(=O)N[C@@H](Cc1ccc(O)cc1)C(=O)N[C@H](C(=O)N[C@@H](CC(C)C)C(=O)O)C(C)(C)C |
| – | Stable | – | 33 nM | CC(=O)N[C@@H](CCCNC(=N)NC(=O)NCCCCc1cn(CCCNC(=O)CCCCCN2/C(=C/C=C/C=C/C3=[N+](C)c4ccc5c(S(=O)(=O)[O-])cc(S(=O)(=O)O)cc5c4C3(C)C)C(C)(C)c3c2ccc2c(S(=O)(=O)O)cc(S(=O)(=O)O)cc32)nn1)C(=O)N[C@@H](Cc1ccc(O)cc1)C(=O)N[C@@H](CCCNC(=N)N)C(=O)N[C@@H](CC(C)C)C(=O)N[C@@H](CCCNC(=N)N)C(=O)N[C@@H](Cc1ccc(O)cc1)C(N)=O |
| 9.4 nM | – | – | – | C#CCCCCNC(=O)NC(=N)NCCC[C@H](NC(=O)[C@@H](N)CCCNC(=N)N)C(=O)N1CCC[C@H]1C(=O)N[C@@H](Cc1ccc(O)cc1)C(=O)N[C@H](C(=O)N[C@@H](CC(C)C)C(=O)O)C(C)(C)C |
| 4.2 nM | – | 4.07 nM | – | C#CCCCCNC(=O)NC(=N)NCCC[C@H](N)C(=O)N[C@@H](CCCNC(=N)N)C(=O)N1CCC[C@H]1C(=O)N[C@@H](Cc1ccc(O)cc1)C(=O)N[C@H](C(=O)N[C@@H](CC(C)C)C(=O)O)C(C)(C)C |
